Here are results for ten molecules from ChEMBL document CHEMBL1201862, “PubChem BioAssay data set” (2004).

Structures are written as SMILES.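 Method: 48-hour compound exposure of cells in 96-well plates, five concentrations, linear interpolation of endpoints. Here, GI50 denotes the concentration required for 50% inhibition of growth.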 Activity calls are given as the source filed them. No stated cut-off is given here; in the data, active = GI50 up to about 1.1 µM and inactive = higher.

Among the test systems are NCI-H226; RXF 393; OVCAR-3; HT-29; EKVX; UACC-257; RPMI-8226; HCT-15; HL-60; Malme-3M; TK-10; IGROV-1; SN12C; KM12; SK-MEL-28; HOP-92; PC-3; OVCAR-8; HCC 2998; MDA-MB-435.
What all share (test): inhibition of tumour cell growth, NCI panel, 48 h

As for `O=C(O)c1ccc(C(=O)c2ccccc2C(=O)O)cc1C(=O)O`, the GI50 in the assay on NCI-H226, in the assay with RXF 393, in the assay with OVCAR-3, with HT-29, in the assay on EKVX and with UACC-257 was > 100 µM (inactive) in each case. Also, the GI50 with RPMI-8226 was > 100 µM (inactive); in the assay on HCT-15 it was over 100 µM; in the assay on HL-60, > 76.9 µM (inactive); in the assay on Malme-3M, > 100 µM (inactive); in the assay with TK-10, > 100 µM (inactive); in the assay on IGROV-1, > 100 µM (inactive). For the same molecule, the GI50 in the assay with SN12C, in the assay with KM12, in the assay with SK-MEL-28, in the assay with HOP-92, in the assay on PC-3 and in the assay on OVCAR-8 was > 100 µM (inactive) throughout. For the same molecule, the GI50 with HCC 2998 and in the assay on MDA-MB-435 was > 100 µM (inactive) throughout.

With `Oc1cccc2c(Br)ccnc12`, the GI50 is 7.1 µM (inactive) in the assay with NCI-H226; 4.65 µM (inactive) in the assay on RXF 393; 0.697 µM (active) in the assay on OVCAR-3; 5.4 µM (inactive) in the assay on HT-29; 2.88 µM (inactive) with EKVX; 2.48 µM (inactive) in the assay with UACC-257. Also, the GI50 in the assay on RPMI-8226 is 0.665 µM (active); with HCT-15 it was 2.27 µM; with HL-60 it was 0.181 µM (active); in the assay on Malme-3M it was 8.38 µM (inactive); in the assay with TK-10, 32.7 µM (inactive); with IGROV-1, 2.12 µM (inactive). In addition, the GI50 in the assay on SN12C is 3.62 µM (inactive); with KM12, 5.19 µM (inactive); in the assay with SK-MEL-28, 12.3 µM (inactive); with HOP-92, 5.71 µM (inactive); in the assay with PC-3 it was 4.17 µM (inactive); with OVCAR-8, 1.22 µM (inactive). Besides, the GI50 in the assay on HCC 2998 was 14.7 µM (inactive); in the assay on MDA-MB-435, 5.92 µM (inactive).

For `NS(=O)(=O)c1ccc(NC(=O)c2ccc3nc4ccccc4c(Nc4ccc(S(N)(=O)=O)cc4)c3c2)cc1`, the GI50 with NCI-H226, with RXF 393, with OVCAR-3, in the assay with HT-29, with EKVX and in the assay with UACC-257 was > 100 µM (inactive) each time. Also, the GI50 in the assay on RPMI-8226 was > 100 µM (inactive); with HCT-15, over 100 µM; with HL-60 it was > 100 µM (inactive); in the assay with Malme-3M it was > 100 µM (inactive); in the assay on TK-10, > 100 µM (inactive); with IGROV-1, > 100 µM (inactive). For the same molecule, the GI50 is > 100 µM (inactive) in the assay with SN12C; 12.1 µM (inactive) with KM12; > 100 µM (inactive) in the assay with SK-MEL-28; > 100 µM (inactive) with HOP-92; > 100 µM (inactive) with PC-3; > 100 µM (inactive) in the assay on OVCAR-8. Moreover, the GI50 in the assay on HCC 2998 and in the assay with MDA-MB-435 was > 100 µM (inactive) each time.

On to `COc1ccccc1CNC(=O)[C@H](Cc1ccc(O)cn1)NC(C)=O`, for which the GI50 in the assay on NCI-H226, in the assay on RXF 393, with OVCAR-3, in the assay with HT-29, in the assay with EKVX and with UACC-257 was > 100 µM (inactive) throughout. For the same molecule, the GI50 was > 100 µM (inactive) with RPMI-8226; over 100 µM in the assay on HCT-15; > 100 µM (inactive) in the assay with HL-60; > 100 µM (inactive) in the assay on Malme-3M; > 100 µM (inactive) in the assay with TK-10; > 100 µM (inactive) in the assay with IGROV-1. For the same molecule, the GI50 in the assay on SN12C is > 100 µM (inactive); in the assay with KM12, > 100 µM (inactive); in the assay with SK-MEL-28, > 100 µM (inactive); in the assay with HOP-92, 57.7 µM (inactive); with PC-3, > 100 µM (inactive); in the assay with HCC 2998, > 100 µM (inactive). Further, in the assay on MDA-MB-435, the GI50 was > 100 µM (inactive).

Regarding `Cc1ccc(S(=O)(=O)Nc2nc3ccccc3c(=O)n2C2CCCCC2)cc1`, the GI50 is > 100 µM (inactive) in the assay with NCI-H226; 68.2 µM (inactive) in the assay on RXF 393; 76.7 µM (inactive) in the assay with OVCAR-3; > 100 µM (inactive) with HT-29; > 100 µM (inactive) in the assay on EKVX; > 100 µM (inactive) in the assay with UACC-257. Further, the GI50 was > 100 µM (inactive) in the assay with RPMI-8226; over 100 µM in the assay with HCT-15; 57.9 µM (inactive) in the assay on HL-60; > 100 µM (inactive) in the assay with TK-10; > 100 µM (inactive) in the assay on IGROV-1; > 100 µM (inactive) with SN12C. Also, the GI50 with KM12 is > 100 µM (inactive); in the assay on SK-MEL-28, > 100 µM (inactive); with HOP-92, 67.5 µM (inactive); with PC-3 it was > 100 µM (inactive); in the assay on OVCAR-8, > 100 µM (inactive); with HCC 2998, > 100 µM (inactive). Further, in the assay on MDA-MB-435, the GI50 is > 100 µM (inactive).

As for `CC[C@@]1(OC(=O)CN(C)C)C(=O)OCc2c1cc1n(c2=O)Cc2cc3ccccc3nc2-1`, the GI50 with NCI-H226 was 0.0356 µM (active); in the assay on RXF 393, 0.139 µM (active); in the assay on OVCAR-3, 0.32 µM (active); with HT-29, 0.129 µM (active); in the assay on EKVX it was 0.863 µM (active); with UACC-257, 0.11 µM (active). In addition, the GI50 with RPMI-8226 was 0.181 µM (active); with HCT-15, 0.228 µM; in the assay on HL-60, 0.0105 µM (active); with Malme-3M, 0.347 µM (active); in the assay with TK-10 it was 1.93 µM (inactive); in the assay on IGROV-1, 0.242 µM (active). In addition, the GI50 was < 0.0191 µM (active) in the assay with SN12C; 0.223 µM (active) in the assay on KM12; 0.308 µM (active) in the assay with SK-MEL-28; 0.119 µM (active) with HOP-92; 0.0973 µM (active) with PC-3; 0.0596 µM (active) with OVCAR-8. Moreover, the GI50 in the assay with HCC 2998 was 0.145 µM (active); in the assay with MDA-MB-435, 0.194 µM (active).

For `O=C1CN(c2ccccc2)Cc2nc(Cl)ccc2N1`, the GI50 in the assay with NCI-H226 is > 100 µM (inactive); in the assay on RXF 393 it was 25.6 µM (inactive); in the assay with HT-29 it was > 100 µM (inactive); in the assay with EKVX, > 100 µM (inactive); in the assay with UACC-257, > 100 µM (inactive); in the assay with RPMI-8226, > 100 µM (inactive). Moreover, the GI50 is over 100 µM in the assay with HCT-15; > 100 µM (inactive) with HL-60; 58.1 µM (inactive) in the assay with Malme-3M; > 100 µM (inactive) with TK-10; > 100 µM (inactive) with IGROV-1; > 100 µM (inactive) with SN12C. In addition, the GI50 was > 100 µM (inactive) in the assay on KM12; > 100 µM (inactive) in the assay on SK-MEL-28; 57.4 µM (inactive) in the assay on HOP-92; 79.4 µM (inactive) in the assay with PC-3; > 100 µM (inactive) in the assay with OVCAR-8; > 100 µM (inactive) in the assay with HCC 2998. The GI50 with MDA-MB-435 is > 100 µM (inactive).

Consider `COC(=O)Cc1cc(O)c2c(c1O)C(=O)c1ccccc1C2=O`, for which the GI50 in the assay with NCI-H226 was 92.3 µM (inactive); in the assay on RXF 393, 30.3 µM (inactive); in the assay on OVCAR-3, > 71.9 µM (inactive); with HT-29, > 46.5 µM (inactive); in the assay on EKVX it was > 94.2 µM (inactive); in the assay on UACC-257 it was > 100 µM (inactive). For the same molecule, the GI50 was > 67.5 µM (inactive) in the assay on RPMI-8226; over 100 µM in the assay with HCT-15; > 94.6 µM (inactive) in the assay on HL-60; > 74 µM (inactive) with Malme-3M; 39.4 µM (inactive) with TK-10; > 83.8 µM (inactive) in the assay on IGROV-1. The GI50 in the assay with SN12C is 99.5 µM (inactive); in the assay on KM12 it was > 100 µM (inactive); in the assay with SK-MEL-28, > 100 µM (inactive); in the assay with HOP-92, 16.1 µM (inactive); in the assay with PC-3 it was > 100 µM (inactive); in the assay with OVCAR-8 it was > 100 µM (inactive). The GI50 with HCC 2998 and in the assay on MDA-MB-435 was > 100 µM (inactive) each time.

In the case of `COc1ccc(-c2[nH]c(-c3ccc(OC)cc3)c(-c3ccccn3)c2-c2ccccn2)cc1`, the GI50 in the assay with NCI-H226 was 85.7 µM (inactive); with RXF 393, 31.3 µM (inactive); in the assay on OVCAR-3, 48.9 µM (inactive); in the assay on HT-29, 21.6 µM (inactive); in the assay with EKVX, 72.3 µM (inactive); in the assay with UACC-257, 40.2 µM (inactive). Moreover, the GI50 in the assay on RPMI-8226 is 20.2 µM (inactive); in the assay on HCT-15, 26.1 µM; in the assay with HL-60, 32.4 µM (inactive); in the assay with Malme-3M, 21.1 µM (inactive); with TK-10 it was > 100 µM (inactive); with IGROV-1, 71.8 µM (inactive). Also, the GI50 was 52.2 µM (inactive) with SN12C; 38.2 µM (inactive) with KM12; > 100 µM (inactive) in the assay with HOP-92; 44 µM (inactive) in the assay on PC-3; 50 µM (inactive) in the assay on OVCAR-8; 13.6 µM (inactive) with HCC 2998. Besides, the GI50 in the assay on MDA-MB-435 is 21.7 µM (inactive).

For `CC(C)=CCN=C(N)N`, the GI50 in the assay on NCI-H226 is > 100 µM (inactive); in the assay with RXF 393, > 100 µM (inactive); in the assay with HT-29, > 100 µM (inactive); in the assay on EKVX, > 100 µM (inactive); in the assay with UACC-257, > 100 µM (inactive); in the assay on RPMI-8226, 24.9 µM (inactive). Further, the GI50 in the assay with HCT-15 was over 100 µM; with HL-60 it was 45.8 µM (inactive); with Malme-3M it was > 100 µM (inactive); in the assay with TK-10, > 100 µM (inactive); with IGROV-1, > 100 µM (inactive); with SN12C it was > 100 µM (inactive). Moreover, the GI50 in the assay with KM12, in the assay on SK-MEL-28, in the assay with HOP-92, in the assay on PC-3, in the assay with OVCAR-8 and in the assay with HCC 2998 was > 100 µM (inactive) each time. Besides, the GI50 with MDA-MB-435 was > 100 µM (inactive).
